Data set [1] deals with peroxidase activity (TPO) in Nthy-ori 3-1 cell lysate.
Protocol: (§2) Briefly, the cells were washed with phosphate-buffered saline (PBS), scraped, resuspended in PBS, and centrifuged for 5 min at 150 rcf. The supernatant was discarded, the pellet was lysed with 0.1% m/v sodium deoxycholate (DC, in PBS) and incubated on ice for 20 min. Lysed cells were centrifuged for 5 min at 12,000 rcf to extract the soluble protein fraction. The supernatant protein concentration was measured using the Bio-Rad DC-protein assay following the manufacturer’s protocol. The cell lysates were kept at − 80 °C for longer-term storage.
(§3) It was performed in the white 96-well plates with total volume of reaction mixture 200 μL per well containing 100 μL cell lysate with protein content of 0.12 mg/mL (final 0.06 mg/mL), 100 μl GNE solution [1 M glycine–NaOH (pH 9.0), 1 mM EDTA] with the test chemical in MeOH (1% MeOH final concentration). The plate was incubated for 30 min with gentle shaking at 37 °C.
(§4) For the data analysis, GraphPad Prism™ (GraphPad Software, San Diego, USA) was used for curve-fitting and IC50 or IC20 calculation. The signal (RLUs or fluorescence intensity) from the wells-containing cell lysate and chemical was background corrected (average RLUs or fluorescence intensity of lysate-free wells), then normalized to the solvent control (100% activity). Fold change of signal intensity was calculated by dividing the signal from cell lysate-containing wells by the signal from the background (average of cell lysate-free wells).
Data set [2] relates to peroxidase activity in HEK293T cell lysate (no TPO expression). The experiment in a line: TPO luminol (Lumi) assay, HEK293T cell lysate.
Protocol: The HEK293T (RRID:CVCL_0063), a human embryonal kidney SV40 transformed immortalized cell line obtained from ATCC, as well as the derived TPO-transfected HEK293T cell line, were cultured in DMEM High Glucose media (Biosera, BioTech) supplemented with 10% FBS.
(§5) HEPES solution (Sigma-Aldrich) was added to balance the pH.
as §2, §3, §4
The target of data set [3] is T1, human TPO (HEK-TPOA7 cell lysate) (Homo sapiens, UniProt P07202).
T1 construct: We have transfected the full length of TPO, which is 933 amino acids; expressed in transfected cells; host or cells: HEK293T (clone HEK-TPOA7), lentiviral transduction, CMV promoter
T1 sequence (P07202 19-933): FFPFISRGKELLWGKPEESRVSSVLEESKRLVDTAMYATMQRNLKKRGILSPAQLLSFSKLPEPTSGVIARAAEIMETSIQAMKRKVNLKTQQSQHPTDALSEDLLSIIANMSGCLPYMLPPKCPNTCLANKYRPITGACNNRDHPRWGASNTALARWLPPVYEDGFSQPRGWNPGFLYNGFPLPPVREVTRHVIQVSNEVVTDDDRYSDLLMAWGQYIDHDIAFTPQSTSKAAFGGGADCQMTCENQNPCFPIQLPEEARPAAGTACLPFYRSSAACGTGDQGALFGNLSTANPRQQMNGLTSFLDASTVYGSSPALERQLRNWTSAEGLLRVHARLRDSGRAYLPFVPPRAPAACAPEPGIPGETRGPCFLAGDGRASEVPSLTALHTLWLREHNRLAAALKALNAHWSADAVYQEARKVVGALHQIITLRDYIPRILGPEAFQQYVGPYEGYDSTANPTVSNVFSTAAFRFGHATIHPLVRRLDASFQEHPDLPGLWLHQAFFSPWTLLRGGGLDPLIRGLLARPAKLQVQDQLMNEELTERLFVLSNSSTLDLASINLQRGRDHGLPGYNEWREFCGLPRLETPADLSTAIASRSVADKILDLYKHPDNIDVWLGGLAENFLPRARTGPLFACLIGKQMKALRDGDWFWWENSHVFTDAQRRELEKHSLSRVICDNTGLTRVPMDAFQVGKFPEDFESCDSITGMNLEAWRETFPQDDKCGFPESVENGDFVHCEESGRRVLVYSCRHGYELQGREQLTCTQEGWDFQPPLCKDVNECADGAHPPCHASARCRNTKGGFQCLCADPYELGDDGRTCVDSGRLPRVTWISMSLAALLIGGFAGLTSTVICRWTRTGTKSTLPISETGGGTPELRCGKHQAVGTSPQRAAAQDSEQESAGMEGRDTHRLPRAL
Kind of data set: AUR-TPO assay, HEK-TPOA7 cell lysate. It counts as biochemical. The text has this: (§1) A human TPO (hTPO) sequence was obtained from NCBI (NM_000547.5) and it was used for the production of lentiviral vector by VectorBuilder (Malvern, USA) containing the gene of interest under the transcriptional control of CMV promotor and EGFP gene linked with puromycin resistance gene under control of EFS promotor (pLV[Exp]-CMV > {NM_000547_5}-EFS > EGFP:T2A:Puro). The purified vector was used to produce lentiviral particles in Lenti-X cell line (TakaraBio Inc., Göteborg, Sweden). […] The medium was replaced 3 h after exposure. The conditioned lentiviral medium was harvested 48 and 72 h later, frozen and stored at − 80 °C. HEK293T cells were exposed to the conditioned lentiviral medium supplemented with Polybrene (10 µg/mL, Merck, Prague, Czech Republic). After 24 h, the medium was replaced with fresh medium with puromycin (Invivogen, Toulouse, France) as a selection factor. After the puromycin treatment, cells were sorted on a FACS sorter FACSAria Fusion (BD Biosciences, Prague, Czech Republic) to obtain GFP-expressing cell clones that were further characterized.
Lower final volume and concentration of H2O2 were used. […] Nonspecific influence of the chemicals themselves on the fluorescence signal was assessed by measuring the fluorescence signal after co-incubating the chemicals (30 min at 37 °C) with 0.3 µM Resorufin and 40 µM H2O2 with the same excitation/emission spectra as with the AUR.
Test of the effect of H2O2 concentration on the TPO activity measurement in the AUR assay: To assess the impact of H2O2 level on the AUR assay, a subset of chemicals (Table S6) was subjected to analysis at two H2O2 concentrations, 40 µM and 300 µM, to evaluate any variance in response.

Data set [4] deals with T2, peroxidase activity (human TPO) in HEK-TPOA7 cell lysate (Homo sapiens, UniProt P07202).
T2 construct: We have transfected the full length of TPO, which is 933 amino acids; expressed in transfected cells; host or cells: HEK293T (clone HEK-TPOA7), lentiviral transduction, CMV promoter
T2 sequence (P07202 19-933): T1 sequence (P07202 19-933)
The experiment in a line: TPO luminol (Lumi) assay, HEK-TPOA7 cell lysate. It counts as biochemical.
Source text: as §1

The subject of data set [5] is peroxidase activity (TPO) in FRTL-5 cell lysate. The experiment in a line: TPO luminol (Lumi) assay, FRTL-5 cell lysate.
Protocol: The FRTL-5 (RRID:CVCL_0265), a spontaneously immortalized rat thyroid follicular cell line obtained from Sigma-Aldrich, was cultured in Coon F12 medium (Sigma-Aldrich) supplemented with L-Glutamine, hydrocortisone, somatostatin, TSH and 10% FBS.
as §5, §2, §3
For the data analysis, GraphPad Prism™ (GraphPad Software, San Diego, USA) was used for curve-fitting and IC50 or IC20 calculation. The signal (RLUs or fluorescence intensity) from the wells-containing cell lysate and chemical was background corrected (average RLUs or fluorescence intensity of lysate-free wells), then normalized to the solvent control (100% activity).
A further data set deals with TPO (CHO-TPO). More on the design: method as in Dong et al. (2020). The following applies: ref Dong et al. (2020); read-out: AUR assay IC50, CHO-TPO; cited from earlier work.
Another data set has as its system TPO (LentiX-TPO). More on the design: method as in Dong et al. (2020). The following applies: ref Dong et al. (2020); read-out: AUR assay IC50, LentiX-TPO; cited from earlier work.
Data set [6] has as its system peroxidase activity (TPO) in Nthy-ori 3-1 cell lysate. More on the design: method as in Jomaa et al. (2015). The following applies: ref Jomaa et al. (2015); read-out: Lumi assay IC50, Nthy-ori 3-1; cited from earlier work.
The next data set has as its system TPO (Nthy-ori 3-1). More on the design: method as in Jomaa et al. (2015). The following applies: ref Jomaa et al. (2015); read-out: AUR assay IC50, Nthy-ori 3-1; cited from earlier work.
In data set [7] the test system is peroxidase activity (TPO) in Nthy-ori 3-1 cell lysate. Kind of data set: TPO luminol (Lumi) assay, Nthy-ori 3-1 cell lysate. The following applies: read-out: Lumi assay IC50, Nthy-ori 3-1.
Protocol: as §2, §3, §4
Data set [8] is described as follows: Solubility of triclosan (PubChem). The format is physicochemical. The following applies: 20 °C; equivalent of 10 mg/L; ref PubChem.
Data set [9] has as its system TPO (rat thyroid microsomes). More on the design: method as in Friedman et al. 2016. The following applies: microsomes from 120 pooled rat thyroids; ref Friedman et al. 2016; cited from earlier work.
Setting [10] is: read-out: Lumi assay IC50, HEK293T, current study, PTU n = 2.
Where [11] appears, read: IC50, AUR assay, H2O2 300uM, HEK-TPOA7 lyzate, n=2, unit not given in Table S6.
Setting [12] is: lysate of cells with hematin pre-treatment, unit inferred, read-out: IC50, HEK-TPOA7, AUR assay, hematin +.
[13] abbreviates: lysate of cells without hematin pre-treatment, unit inferred, read-out: IC50, HEK-TPOA7, AUR assay, hematin -.
[14] abbreviates: current study, n ≥ 3, hematin pre-treated cells, NA = not active up to the highest tested concentration, read-out: Lumi assay IC50, HEK-TPOA7.
The mark [15] stands for this setting: lysate of cells without hematin pre-treatment, unit inferred, read-out: IC50, HEK-TPOA7, Lumi assay, hematin -.
[16] abbreviates: read-out: IC50, FRTL-5, Lumi assay, hematin +, lysate of cells with hematin pre-treatment, unit inferred.
Where [17] appears, read: read-out: Lumi assay IC50, FRTL-5, current study, n ≥ 3, NA = not active up to the highest tested concentration.
Where [18] appears, read: current study, n ≥ 3, pH 7.2, 40 µM H2O2, NA = not active up to the highest tested concentration, read-out: AUR assay IC50, HEK-TPOA7.
[19] abbreviates: IC20 shown where IC50 was not reached, read-out: AUR assay IC20, HEK-TPOA7.
Setting [20] is: read-out: IC50, AUR assay, H2O2 300uM, HEK-TPOA7 lyzate, n=2, unit not given in Table S6.

Where two headings read alike, the source gives them in different places.

The term IC50 denotes the concentration that inhibits the measured activity by half. In the case of `CC(C)(c1ccc(O)cc1)c1ccc(O)cc1` [BPA, Bisphenol A], the IC50 in [1] stood at 120 µM; in [2] (setting [10]) it was 122 µM; in data set [3] (setting [11]), 10.9 µM; in [3] (setting [12]) it was 10.6 µM; in data set [3] (setting [13]) it was 8.29 µM; in data set [4] (setting [14]), 130 µM. Moreover, the results for the IC50 in data set [4] (setting [15]), in data set [5] (setting [16]) and in data set [5] (setting [17]) were 107 µM, 166 µM and 143 µM, respectively.

`Oc1cccc(O)c1` [RSC, Resorcinol]: the IC50 in the data set with TPO (CHO-TPO) was 0.05 µM; in the data set on TPO (LentiX-TPO), 0.06 µM; in data set [1] it was 13.8 µM; in [3] (IC50, AUR assay, H2O2 40uM, HEK-TPOA7 lyzate, n=2, unit not given in Table S6) it was 0.36 µM; in data set [3] (setting [11]), 0.61 µM; in data set [3] (setting [18]) it was 0.358 µM. In addition, the IC50 in data set [3] (setting [12]) is 0.36 µM; in data set [3] (setting [13]), 0.36 µM; in data set [4] (setting [14]), 17.9 µM; in data set [5] (setting [16]) it was 13.9 µM; in data set [5] (setting [17]), 15.7 µM.

Regarding `CCCc1cc(=O)[nH]c(=S)[nH]1` [PTU, 6-propylthiouracil, reference compound], the IC50 with TPO (CHO-TPO) is 4.9 µM; in the data set on TPO (LentiX-TPO) it was 10.4 µM; in data set [6], 16.4 µM; in data set [1], 11.7 µM; in data set [2] (setting [10]), 18.9 µM; in data set [5] (setting [16]), 12.5 µM. The IC50 in data set [5] (setting [17]) was 13.2 µM; in the data set with TPO (Nthy-ori 3-1), 35.2 µM.

As to `Oc1cc(Cl)ccc1Oc1ccc(Cl)cc1Cl` [TCS, Triclosan], the IC50 in the data set on TPO (CHO-TPO) was over 253 µM; with TPO (LentiX-TPO), over 253 µM; in [7], 51 µM; in data set [2] (setting [10]), 47.8 µM; in data set [3] (HEK-TPOA7, pH 8.8 (SD = 14), read-out: AUR assay IC50 at higher pH) it was 72.7 µM; in data set [3] (setting [11]), 165 µM. The IC50 in [3] (setting [12]) stood at 197 µM; in [4] (setting [14]), 38.4 µM; in data set [5] (setting [16]), 46.2 µM; in data set [5] (setting [17]) it was 67.9 µM. The “solubility (equivalent)” value in data set [8] came out at 34.5 µM.

`Cn1cc[nH]c1=S` [MMI, Methimazole, reference compound]: the IC50 with TPO (CHO-TPO) was 0.49 µM; with TPO (LentiX-TPO), 0.23 µM; in [6], 4 µM; in data set [1] it was 3.91 µM; in data set [3] (setting [11]), 1.33 µM; in data set [3] (setting [18]), 1.5 µM. In addition, the IC50 is 1.5 µM in data set [3] (setting [12]); 1.12 µM in data set [3] (setting [13]); 3.24 µM in data set [4] (setting [14]); 3.59 µM in data set [5] (setting [16]); 3.69 µM in data set [5] (setting [17]); 2.7 µM in the data set with TPO (Nthy-ori 3-1).

What is called IC20 is the point of the concentration-response curve where the effect stands at 20%. With `Cc1cc(NS(=O)(=O)c2ccc(N)cc2)no1` [SMX, Sulfamethoxazol, reference compound], the IC20 in data set [3] (HEK-TPOA7 lyzate, n=2, starred chemicals, unit not given in Table S6, read-out: IC20, AUR assay, H2O2 300uM) worked out at 140 µM; in data set [3] (setting [19]) it was 101 µM.

With `O=C(c1ccc(O)cc1O)c1ccc(O)cc1O` [BP2, 2,2′-4,4′-tetrahydroxy benzophenone], the IC50 with TPO (CHO-TPO) was 0.2 µM; with TPO (LentiX-TPO) it was 0.24 µM; in data set [1], 38.5 µM; in [3] (setting [18]), 0.56 µM; in data set [3] (setting [12]), 0.56 µM; in data set [3] (setting [13]), 0.48 µM. Further, the IC50 in data set [3] (setting [20]) was determined as 0.64 µM; in data set [4] (setting [14]), 20.2 µM; in [5] (setting [16]), 31.4 µM; in data set [5] (setting [17]) it was 29.6 µM.

On to `CC(C)(c1cc(Br)c(O)c(Br)c1)c1cc(Br)c(O)c(Br)c1` [TBBPA, Tetrabromobisphenol A], for which the IC50 in [7] was determined as 77.2 µM; in data set [2] (read-out: IC50, HEK293T, Lumi assay, hematin +, lysate of cells with hematin pre-treatment, unit inferred), 87.1 µM; in [2] (setting [10]) it was 64.4 µM; in data set [3] (setting [18]), 8.65 µM; in data set [3] (setting [12]), 8.65 µM; in data set [3] (setting [13]), 8.2 µM. Also, the IC50 in [3] (setting [20]) turned out to be 6.5 µM; in [4] (setting [14]), 90.9 µM; in data set [4] (setting [15]) it was 107 µM; in [5] (setting [16]), 190 µM; in data set [5] (setting [17]) it was 130 µM.

As to `S=C1NCCN1` [ETU, Ethylene thiourea], the “TPO inhibition in rat thyroid-based AUR assay (ToxCast)” value in [9] was “quantifiable IC50”.

On to `O=C(O)C(F)(F)C(F)(F)C(F)(F)C(F)(F)C(F)(F)C(F)(F)C(F)(F)F` [PFOA, Perfluorooctanoic acid], for which the IC20 in data set [3] (setting [19]) is 5.15 µM; in [4] (IC20 shown where IC50 was not reached), 110 µM.
